Organism: Rattus norvegicus
Assay: Open TG-GATES - Regimen: Single
Format: toxicity, organism-based, Sprague-Dawley
Parameters: regimen Single, gender Male, age 6 weeks
Details: in vivo, po, 0 mg/kg, route gavage, dose level Control; for Bas / Eos / Fbg / Hb / Ht / Lym / MCHC / MCV / Mono / PT / Plat / RBC / WBC / APTT: tissue Blood; for KIDNEY_L / KIDNEY_R / KIDNEY_TOTAL: tissue Kidney; for LIVER: tissue Liver; for ALP / ALT / AST / CRE / Ca / Cl / DBIL / GLC / K / LDH / Na / PL / RALB / TBIL / TC / TG / TP / gamma-GTP: tissue Plasma

**Q.** How did the TERMINAL_BW (3 h) turn out when `COc1ccc([C@@H]2Sc3ccccc3N(CCN(C)C)C(=O)[C@@H]2OC(C)=O)cc1` [DILTIAZEM] was run?
**A.** 181.4 g

**Q.** What about the Bas (3 h) of the same compound?
**A.** 0%

**Q.** And the Eos (3 h)?
**A.** 0.8%

**Q.** What about the Fbg (3 h) of the same compound?
**A.** 269 mg/dL

**Q.** And the Hb (3 h)?
**A.** 13 g/dL

**Q.** And the Ht (3 h)?
**A.** 40.2%

**Q.** And the Lym (3 h)?
**A.** 76.8%

**Q.** What about the MCHC (3 h) of the same compound?
**A.** 32.3%

**Q.** What about the MCV (3 h) of the same compound?
**A.** 67 fL

**Q.** And the Mono (3 h)?
**A.** 3.4%

**Q.** And the PT (3 h)?
**A.** 14.3 s

**Q.** And the Plat (3 h)?
**A.** 127.1 x10_4/uL

**Q.** And the RBC (3 h)?
**A.** 600.6 x10_4/ul

**Q.** And the WBC (3 h)?
**A.** 84.6 x10_2/uL

**Q.** What about the KIDNEY_L (3 h) of the same compound?
**A.** 0.9 g

**Q.** What about the KIDNEY_R (3 h) of the same compound?
**A.** 0.9 g

**Q.** What about the KIDNEY_TOTAL (3 h) of the same compound?
**A.** 1.8 g

**Q.** And the LIVER (3 h)?
**A.** 8.3 g

**Q.** What about the ALP (3 h) of the same compound?
**A.** 1273 IU/L

**Q.** And the ALT (3 h)?
**A.** 43.2 IU/L

**Q.** What about the AST (3 h) of the same compound?
**A.** 75.4 IU/L

**Q.** And the CRE (3 h)?
**A.** 0.2 mg/dL

**Q.** And the Ca (3 h)?
**A.** 10.9 mg/dL

**Q.** And the Cl (3 h)?
**A.** 106.8 meq/L

**Q.** What about the DBIL (3 h) of the same compound?
**A.** 0.01 mg/dL

**Q.** What about the GLC (3 h) of the same compound?
**A.** 178.4 mg/dL

**Q.** And the K (3 h)?
**A.** 4.4 meq/L

**Q.** And the LDH (3 h)?
**A.** 79.2 IU/L

**Q.** What about the Na (3 h) of the same compound?
**A.** 142 meq/L

**Q.** And the PL (3 h)?
**A.** 141 mg/dL

**Q.** And the RALB (3 h)?
**A.** 2.5 g/dL

**Q.** What about the TBIL (3 h) of the same compound?
**A.** 0.04 mg/dL

**Q.** What about the TC (3 h) of the same compound?
**A.** 83.2 mg/dL

**Q.** What about the TG (3 h) of the same compound?
**A.** 38.4 mg/dL

**Q.** And the TP (3 h)?
**A.** 5.1 g/dL

**Q.** What about the gamma-GTP (3 h) of the same compound?
**A.** 1 IU/L

**Q.** What about the TERMINAL_BW (6 h) of the same compound?
**A.** 181.1 g

**Q.** And the APTT (6 h)?
**A.** 18.2 s

**Q.** What about the Bas (6 h) of the same compound?
**A.** 0%

**Q.** What about the Eos (6 h) of the same compound?
**A.** 0.4%

**Q.** What about the Fbg (6 h) of the same compound?
**A.** 280 mg/dL

**Q.** And the Hb (6 h)?
**A.** 13.3 g/dL

**Q.** And the Ht (6 h)?
**A.** 40.7%

**Q.** And the Lym (6 h)?
**A.** 78%

**Q.** And the MCHC (6 h)?
**A.** 32.6%

**Q.** And the MCV (6 h)?
**A.** 66.8 fL

**Q.** What about the Mono (6 h) of the same compound?
**A.** 2.6%

**Q.** And the PT (6 h)?
**A.** 14.5 s

**Q.** What about the Plat (6 h) of the same compound?
**A.** 116.6 x10_4/uL

**Q.** What about the RBC (6 h) of the same compound?
**A.** 609.6 x10_4/ul

**Q.** And the WBC (6 h)?
**A.** 77 x10_2/uL

**Q.** And the KIDNEY_L (6 h)?
**A.** 0.8 g

**Q.** And the KIDNEY_R (6 h)?
**A.** 0.8 g

**Q.** And the KIDNEY_TOTAL (6 h)?
**A.** 1.7 g

**Q.** And the LIVER (6 h)?
**A.** 7.8 g

**Q.** And the ALP (6 h)?
**A.** 1331.4 IU/L

**Q.** What about the ALT (6 h) of the same compound?
**A.** 40.2 IU/L

**Q.** And the AST (6 h)?
**A.** 69.4 IU/L

**Q.** What about the CRE (6 h) of the same compound?
**A.** 0.2 mg/dL

**Q.** And the Ca (6 h)?
**A.** 10.8 mg/dL

**Q.** And the Cl (6 h)?
**A.** 106.6 meq/L

**Q.** And the DBIL (6 h)?
**A.** 0.006 mg/dL

**Q.** What about the GLC (6 h) of the same compound?
**A.** 171.6 mg/dL

**Q.** What about the K (6 h) of the same compound?
**A.** 4.1 meq/L

**Q.** And the LDH (6 h)?
**A.** 61.4 IU/L

**Q.** What about the Na (6 h) of the same compound?
**A.** 143 meq/L

**Q.** And the PL (6 h)?
**A.** 129.8 mg/dL

**Q.** What about the RALB (6 h) of the same compound?
**A.** 2.5 g/dL

**Q.** What about the TBIL (6 h) of the same compound?
**A.** 0.038 mg/dL

**Q.** What about the TC (6 h) of the same compound?
**A.** 71.8 mg/dL

**Q.** What about the TG (6 h) of the same compound?
**A.** 43.2 mg/dL

**Q.** What about the TP (6 h) of the same compound?
**A.** 5.1 g/dL

**Q.** What about the gamma-GTP (6 h) of the same compound?
**A.** 1 IU/L

**Q.** And the TERMINAL_BW (9 h)?
**A.** 180.5 g

**Q.** What about the APTT (9 h) of the same compound?
**A.** 17 s

**Q.** What about the Bas (9 h) of the same compound?
**A.** 0%

**Q.** And the Eos (9 h)?
**A.** 0.6%

**Q.** And the Fbg (9 h)?
**A.** 313 mg/dL

**Q.** What about the Hb (9 h) of the same compound?
**A.** 13.3 g/dL

**Q.** And the Ht (9 h)?
**A.** 41.1%

**Q.** What about the Lym (9 h) of the same compound?
**A.** 75.4%

**Q.** What about the MCHC (9 h) of the same compound?
**A.** 32.3%

**Q.** What about the MCV (9 h) of the same compound?
**A.** 66.5 fL

**Q.** What about the Mono (9 h) of the same compound?
**A.** 2.4%

**Q.** And the PT (9 h)?
**A.** 14.5 s

**Q.** What about the Plat (9 h) of the same compound?
**A.** 126.8 x10_4/uL

**Q.** What about the RBC (9 h) of the same compound?
**A.** 619.2 x10_4/ul

**Q.** And the WBC (9 h)?
**A.** 78.7 x10_2/uL

**Q.** What about the KIDNEY_L (9 h) of the same compound?
**A.** 0.8 g

**Q.** What about the KIDNEY_R (9 h) of the same compound?
**A.** 0.8 g

**Q.** What about the KIDNEY_TOTAL (9 h) of the same compound?
**A.** 1.7 g

**Q.** What about the LIVER (9 h) of the same compound?
**A.** 6.9 g

**Q.** What about the ALP (9 h) of the same compound?
**A.** 1820.2 IU/L

**Q.** And the ALT (9 h)?
**A.** 43 IU/L

**Q.** And the AST (9 h)?
**A.** 75.4 IU/L

**Q.** And the CRE (9 h)?
**A.** 0.2 mg/dL

**Q.** And the Ca (9 h)?
**A.** 10.6 mg/dL

**Q.** And the Cl (9 h)?
**A.** 107 meq/L

**Q.** What about the DBIL (9 h) of the same compound?
**A.** 0.01 mg/dL

**Q.** What about the GLC (9 h) of the same compound?
**A.** 178 mg/dL

**Q.** And the K (9 h)?
**A.** 4.1 meq/L

**Q.** What about the LDH (9 h) of the same compound?
**A.** 71.8 IU/L

**Q.** And the Na (9 h)?
**A.** 142.2 meq/L

**Q.** What about the PL (9 h) of the same compound?
**A.** 119.4 mg/dL

**Q.** And the RALB (9 h)?
**A.** 2.5 g/dL

**Q.** And the TBIL (9 h)?
**A.** 0.038 mg/dL

**Q.** What about the TC (9 h) of the same compound?
**A.** 67.2 mg/dL

**Q.** What about the TG (9 h) of the same compound?
**A.** 28.4 mg/dL

**Q.** What about the TP (9 h) of the same compound?
**A.** 5.2 g/dL

**Q.** And the gamma-GTP (9 h)?
**A.** 1.8 IU/L

**Q.** And the TERMINAL_BW (24 h)?
**A.** 198.1 g

**Q.** What about the Bas (24 h) of the same compound?
**A.** 0%

**Q.** What about the Eos (24 h) of the same compound?
**A.** 1%

**Q.** And the Fbg (24 h)?
**A.** 259.8 mg/dL

**Q.** What about the Hb (24 h) of the same compound?
**A.** 13 g/dL

**Q.** What about the Ht (24 h) of the same compound?
**A.** 39.6%

**Q.** What about the Lym (24 h) of the same compound?
**A.** 74.6%

**Q.** And the MCHC (24 h)?
**A.** 32.9%

**Q.** And the MCV (24 h)?
**A.** 64.9 fL

**Q.** What about the Mono (24 h) of the same compound?
**A.** 3.4%

**Q.** And the PT (24 h)?
**A.** 14.8 s

**Q.** What about the Plat (24 h) of the same compound?
**A.** 119.2 x10_4/uL

**Q.** And the RBC (24 h)?
**A.** 610.2 x10_4/ul

**Q.** What about the WBC (24 h) of the same compound?
**A.** 90.7 x10_2/uL

**Q.** What about the KIDNEY_L (24 h) of the same compound?
**A.** 0.9 g

**Q.** What about the KIDNEY_R (24 h) of the same compound?
**A.** 0.9 g

**Q.** What about the KIDNEY_TOTAL (24 h) of the same compound?
**A.** 1.8 g

**Q.** And the LIVER (24 h)?
**A.** 8.9 g

**Q.** And the ALT (24 h)?
**A.** 48 IU/L

**Q.** What about the AST (24 h) of the same compound?
**A.** 77 IU/L

**Q.** And the CRE (24 h)?
**A.** 0.2 mg/dL

**Q.** What about the Ca (24 h) of the same compound?
**A.** 11.1 mg/dL

**Q.** And the Cl (24 h)?
**A.** 107 meq/L

**Q.** What about the DBIL (24 h) of the same compound?
**A.** 0.014 mg/dL

**Q.** And the GLC (24 h)?
**A.** 187.4 mg/dL

**Q.** What about the K (24 h) of the same compound?
**A.** 4.2 meq/L

**Q.** And the LDH (24 h)?
**A.** 88.4 IU/L

**Q.** What about the Na (24 h) of the same compound?
**A.** 143.8 meq/L

**Q.** And the PL (24 h)?
**A.** 148.6 mg/dL

**Q.** And the RALB (24 h)?
**A.** 2.6 g/dL

**Q.** And the TBIL (24 h)?
**A.** 0.03 mg/dL

**Q.** What about the TC (24 h) of the same compound?
**A.** 76.6 mg/dL
